Data from paper PMC6234229, “The role of loops B and C in determining the potentiation of GABAA receptors by midazolam” (Pharmacology Research & Perspectives, 2018).

How the values were obtained:
Details in all cases: GABA Hill fit
[1] = target: T1, α1(S206I)β2γ2 GABAA receptor (Homo sapiens, UniProt P14867+P18507+P47870, S233I); test: GABA concentration-response assay, whole-cell patch clamp, HEK293T; format: cell-based
T1 construct: expressed in transfected cells; host or cells: HEK293T
Source text: (§1) Human (Homo sapiens) GABAA subunits (α1‐6, β2, γ2s) were subcloned into pcDNA3.1+ vectors with a cytomegalovirus (CMV) promoter. The hβ2 and hα3 sequences were humanized rat (Rattus norvegicus) cDNA with amino acid substitutions made to match the human protein sequence. The α1‐3, α5, β2, and γ2s subunits were a generous gift from Neil L. Harrison (Columbia University Medical Center, NY). The α4 subunit was obtained from GenScript (Piscataway, NJ), and the α6 subunit was a generous gift from Robert L. McDonald (Vanderbilt University, TN). All point mutations (listed in Figure 1C) were introduced using the QuikChange Lightening site‐directed mutagenesis kit (Agilent Technologies, Santa Clara, CA) according to the manufacturer's instructions and were confirmed by sequencing (Eurofins MWG Operon, Louisville, KY).
(§2) Human embryonic kidney cells containing the SV40 T‐antigen (HEK293T) were acquired from American Type Culture Collection (ATCC®, Manassas, VA), catalogue number, CRL3216. HEK293T cells were maintained at 37°C and 5% CO2 in Eagle Minimum Essential Medium (MEM) supplemented with 5% fetal bovine serum (Atlanta Biologicals Inc., Flowery Branch, GA), 40 μM L‐glutamine, 100 U/mL penicillin and 0.1 mM streptomycin. Cells were passaged regularly when they reached 70% confluency using trypsin. Cells were not passaged more than 22 times. New cells were revived from frozen stocks at passage 2‐4. Cells used for in vitro electrophysiology experiments were grown on poly‐D‐lysine‐coated glass coverslips (No.2, VWR, Radnor, PA) and transfected with X‐tremeGENE (Roche Diagnostics, Indianapolis, IN) with the desired receptor subunit cDNAs at a 1:1:1 ratio to express αxβ2γ2s receptors (2 μg total cDNA) and with 0.5 μg green fluorescent protein (GFP) as an expression marker. The γ2s incorporation into receptors was tested with zinc inhibition assays regularly.24 Patch clamp experiments were performed on cells at 24‐72 hours post‐transfection. All experiments were performed at 22°C. Experiments consisted of at least five cells recorded per day from at least two transfections across 3‐4 days to control for cell health and transfection efficiency. At least three cells expressing wild‐type receptors were recorded on days that mutant receptors were tested to provide a time‐matched expression control. All reagents were purchased from Sigma‐Aldrich (St. Louis, MO) unless otherwise stated.
(§3) Extracellular solution contained 161 mM NaCl, 3 mM KCl, 1 mM MgCl2, 1.5 mM CaCl2, 10 mM HEPES, and 6 mM D‐glucose, adjusted to pH 7.4 with NaOH (320‐330 mOsm). […] The perfusion system was controlled by protocols written in pClamp 9 (Molecular Devices, LLC., Sunnyvale, CA). Whole‐cell currents were recorded at ‐60 mV, filtered at 100 Hz and sampled at 200 Hz with a MultiClamp 700B amplifier (Molecular Devices, LLC) and DigiData 1322A (Molecular Devices, LLC) digitizer. […] Cells were recorded with the midazolam protocol no more than two times to avoid desensitization and incomplete washout or irreversible modulation.
(§4) Recordings were analyzed using MATLAB (Math Works, Inc., Natick, MA). […] The maximum peak current, EC50 and Hill coefficient were estimated for assays from each cell. When Hill parameters are estimated from whole‐cell recordings, the changes in the parameters across receptor conditions can be ascribed to the following changes in receptor physiology. Changes in maximum current can be due to changes in the single‐channel conductance or the rate of desensitization. Changes in cell surface receptor expression can cause minor changes in maximum current, but are unlikely to occur in the time course of our experimental protocol. […] More often minor changes in the Hill coefficient are attributed to the altered homogeneity in the receptor population expressed by the HEK293T cell. For example, a shallower Hill coefficient could be caused by a shift in the population of receptors from mostly αβγ receptors to a combination of both αβ and αβγ receptors.

[2] = target: T2, α1(T163P)β2γ2 GABAA receptor (Homo sapiens, UniProt P14867+P18507+P47870, T190P); test: as above; format: cell-based
T2 construct: expressed in transfected cells; host or cells: HEK293T
Source text: as §1, §2, §3, §4

[3] = target: T3, α2(H101R)β2γ2 GABAA receptor (Homo sapiens, UniProt P18507+P47869+P47870, H129R); test: as above; format: cell-based
T3 construct: expressed in transfected cells; host or cells: HEK293T
Source text: as §1, §2, §3, §4

α2β2γ2 GABAA receptor = target: T4, α2β2γ2 GABAA receptor (Homo sapiens, UniProt P18507+P47869+P47870); test: as above; format: cell-based
T4 construct: expressed in transfected cells; host or cells: HEK293T
Source text: as §1, §2, §3, §4

[4] = target: T5, α3(H126R)β2γ2 GABAA receptor (Homo sapiens, UniProt P18507+P34903+P47870, H154R); test: as above; format: cell-based
T5 construct: expressed in transfected cells; host or cells: HEK293T
Source text: as §1, §2, §3, §4

[5] = target: T6, α3(S230I)β2γ2 GABAA receptor (Homo sapiens, UniProt P18507+P34903+P47870, S258I); test: as above; format: cell-based
T6 construct: expressed in transfected cells; host or cells: HEK293T
Source text: as §1, §2, §3, §4

[6] = target: T7, α3(T187P)β2γ2 GABAA receptor (Homo sapiens, UniProt P18507+P34903+P47870, T215P); test: as above; format: cell-based
T7 construct: expressed in transfected cells; host or cells: HEK293T
Source text: as §1, §2, §3, §4

[7] = target: T8, α4(P161T)β2γ2 GABAA receptor (Homo sapiens, UniProt P18507+P47870+P48169, P196T); test: as above; format: cell-based
T8 construct: expressed in transfected cells; host or cells: HEK293T
Source text: as §1, §2, §3, §4

[8] = target: T9, α4(R100H)β2γ2 GABAA receptor (Homo sapiens, UniProt P18507+P47870+P48169, R135H); test: as above; format: cell-based
T9 construct: expressed in transfected cells; host or cells: HEK293T
Source text: as §1, §2, §3, §4

α6β2γ2 GABAA receptor = target: T10, α6β2γ2 GABAA receptor (Homo sapiens, UniProt P18507+P47870+Q16445); test: as above; format: cell-based
T10 construct: expressed in transfected cells; host or cells: HEK293T
Source text: as §1, §2, §3, §4

[9] = target: α6(P161T)β2γ2 GABAA receptor (Homo sapiens, UniProt P18507+P47870+Q16445, P180T)
Source text: (§5) Human (Homo sapiens) GABAA subunits (α1‐6, β2, γ2s) were subcloned into pcDNA3.1+ vectors with a cytomegalovirus (CMV) promoter. The hβ2 and hα3 sequences were humanized rat (Rattus norvegicus) cDNA with amino acid substitutions made to match the human protein sequence. The α1‐3, α5, β2, and γ2s subunits were a generous gift from Neil L. Harrison (Columbia University Medical Center, NY). The α4 subunit was obtained from GenScript (Piscataway, NJ), and the α6 subunit was a generous gift from Robert L. McDonald (Vanderbilt University, TN). […]
(§6) Human embryonic kidney cells containing the SV40 T‐antigen (HEK293T) were acquired from American Type Culture Collection (ATCC®, Manassas, VA), catalogue number, CRL3216. […] Experiments consisted of at least five cells recorded per day from at least two transfections across 3‐4 days to control for cell health and transfection efficiency. At least three cells expressing wild‐type receptors were recorded on days that mutant receptors were tested to provide a time‐matched expression control. […]
(§7) Extracellular solution contained 161 mM NaCl, 3 mM KCl, 1 mM MgCl2, 1.5 mM CaCl2, 10 mM HEPES, and 6 mM D‐glucose, adjusted to pH 7.4 with NaOH (320‐330 mOsm). […] Whole‐cell currents were recorded at ‐60 mV, filtered at 100 Hz and sampled at 200 Hz with a MultiClamp 700B amplifier (Molecular Devices, LLC) and DigiData 1322A (Molecular Devices, LLC) digitizer. […]

[10] = target: α6(R100H)β2γ2 GABAA receptor (Homo sapiens, UniProt P18507+P47870+Q16445, R119H)
Source text: as §5, §6, §7

T1 sequence (P14867 28-456 S233I): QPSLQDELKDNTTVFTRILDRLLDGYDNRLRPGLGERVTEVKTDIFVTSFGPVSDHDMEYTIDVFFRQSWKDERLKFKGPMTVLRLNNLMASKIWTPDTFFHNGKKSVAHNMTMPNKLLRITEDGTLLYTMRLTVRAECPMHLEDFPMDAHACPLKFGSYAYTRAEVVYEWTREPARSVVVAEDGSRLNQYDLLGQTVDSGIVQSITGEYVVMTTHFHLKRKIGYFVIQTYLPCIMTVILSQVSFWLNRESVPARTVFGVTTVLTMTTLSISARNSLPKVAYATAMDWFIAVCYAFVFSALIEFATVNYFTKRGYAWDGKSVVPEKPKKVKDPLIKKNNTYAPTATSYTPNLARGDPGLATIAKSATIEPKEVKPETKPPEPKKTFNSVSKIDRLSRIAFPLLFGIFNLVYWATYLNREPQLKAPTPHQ
T1 sequence (P47870 25-512 limits assumed, stated change not applied): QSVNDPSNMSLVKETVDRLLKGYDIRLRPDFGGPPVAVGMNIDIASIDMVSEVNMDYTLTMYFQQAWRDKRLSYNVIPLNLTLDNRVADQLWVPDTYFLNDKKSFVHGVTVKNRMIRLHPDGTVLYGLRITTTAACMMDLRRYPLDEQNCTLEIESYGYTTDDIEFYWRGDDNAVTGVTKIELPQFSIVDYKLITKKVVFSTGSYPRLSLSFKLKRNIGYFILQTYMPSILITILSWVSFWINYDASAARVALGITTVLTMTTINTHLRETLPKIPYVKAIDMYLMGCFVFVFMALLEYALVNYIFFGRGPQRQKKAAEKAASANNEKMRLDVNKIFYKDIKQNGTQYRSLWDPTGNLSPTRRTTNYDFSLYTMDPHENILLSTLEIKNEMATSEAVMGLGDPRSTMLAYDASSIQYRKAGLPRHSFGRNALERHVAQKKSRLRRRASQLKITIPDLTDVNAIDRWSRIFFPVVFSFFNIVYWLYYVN
T1 sequence (P18507 40-467 isoform P18507-1 limits assumed, stated change not applied): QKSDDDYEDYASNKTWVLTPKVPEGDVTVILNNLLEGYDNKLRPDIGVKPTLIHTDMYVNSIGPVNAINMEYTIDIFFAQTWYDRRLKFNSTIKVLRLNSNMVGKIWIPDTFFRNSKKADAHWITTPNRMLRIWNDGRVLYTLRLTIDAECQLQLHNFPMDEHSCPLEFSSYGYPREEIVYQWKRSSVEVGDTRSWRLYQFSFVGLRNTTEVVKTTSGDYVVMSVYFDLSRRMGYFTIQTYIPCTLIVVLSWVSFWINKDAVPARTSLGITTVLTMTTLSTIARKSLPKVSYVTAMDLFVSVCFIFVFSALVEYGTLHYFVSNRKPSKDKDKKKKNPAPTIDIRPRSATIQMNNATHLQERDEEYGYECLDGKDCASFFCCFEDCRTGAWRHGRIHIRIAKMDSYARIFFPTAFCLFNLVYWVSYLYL
T10 sequence (Q16445 20-453): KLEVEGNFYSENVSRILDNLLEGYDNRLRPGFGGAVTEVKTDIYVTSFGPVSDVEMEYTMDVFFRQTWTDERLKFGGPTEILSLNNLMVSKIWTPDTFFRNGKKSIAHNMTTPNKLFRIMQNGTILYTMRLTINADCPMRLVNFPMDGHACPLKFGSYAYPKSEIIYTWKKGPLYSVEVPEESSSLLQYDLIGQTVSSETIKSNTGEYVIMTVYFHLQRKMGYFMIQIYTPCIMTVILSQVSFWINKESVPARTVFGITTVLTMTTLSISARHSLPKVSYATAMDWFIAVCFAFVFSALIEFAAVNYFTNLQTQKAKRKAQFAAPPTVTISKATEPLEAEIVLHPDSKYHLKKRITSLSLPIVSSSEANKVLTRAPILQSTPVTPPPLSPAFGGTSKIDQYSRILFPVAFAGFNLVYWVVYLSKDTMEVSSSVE
T10 sequence (P47870 26-474 isoform P47870-1 limits assumed): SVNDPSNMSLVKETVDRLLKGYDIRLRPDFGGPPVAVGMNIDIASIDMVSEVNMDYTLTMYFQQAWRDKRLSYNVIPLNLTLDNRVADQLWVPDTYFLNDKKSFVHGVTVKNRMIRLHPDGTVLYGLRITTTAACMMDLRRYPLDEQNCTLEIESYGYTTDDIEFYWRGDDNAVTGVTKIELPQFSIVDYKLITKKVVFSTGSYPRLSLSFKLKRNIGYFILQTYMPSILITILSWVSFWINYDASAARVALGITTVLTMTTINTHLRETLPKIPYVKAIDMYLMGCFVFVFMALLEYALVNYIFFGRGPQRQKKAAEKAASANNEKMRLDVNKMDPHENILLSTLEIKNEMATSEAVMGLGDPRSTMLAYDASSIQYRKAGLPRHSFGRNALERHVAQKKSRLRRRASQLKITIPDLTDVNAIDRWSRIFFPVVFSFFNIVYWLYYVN
T10 sequence (P18507 40-467 isoform P18507-1 limits assumed): as the sequence (P18507 40-467 isoform P18507-1 limits assumed, stated change not applied) above
T9 sequence (P48169 36-554 R135H): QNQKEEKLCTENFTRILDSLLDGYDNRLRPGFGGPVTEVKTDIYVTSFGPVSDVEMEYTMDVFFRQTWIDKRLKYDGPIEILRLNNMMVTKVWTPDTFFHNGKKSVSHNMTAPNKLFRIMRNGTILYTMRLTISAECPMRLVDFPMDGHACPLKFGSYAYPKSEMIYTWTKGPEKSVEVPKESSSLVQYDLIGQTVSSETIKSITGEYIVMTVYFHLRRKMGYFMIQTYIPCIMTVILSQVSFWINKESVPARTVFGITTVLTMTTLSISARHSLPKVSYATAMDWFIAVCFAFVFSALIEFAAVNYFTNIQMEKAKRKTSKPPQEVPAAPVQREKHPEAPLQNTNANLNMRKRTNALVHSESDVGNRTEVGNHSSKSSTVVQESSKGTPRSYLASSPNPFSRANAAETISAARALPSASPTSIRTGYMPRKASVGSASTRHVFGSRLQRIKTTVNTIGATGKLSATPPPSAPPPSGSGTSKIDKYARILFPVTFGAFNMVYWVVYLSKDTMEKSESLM
T9 sequence (P47870 26-474 isoform P47870-1 limits assumed, stated change not applied): as the sequence (P47870 26-474 isoform P47870-1 limits assumed) above
T9 sequence (P18507 40-467 isoform P18507-1 limits assumed, stated change not applied): as the sequence (P18507 40-467 isoform P18507-1 limits assumed, stated change not applied) above

## NCCCC(=O)O [GABA, γ‐aminobutyric acid]
[1]
  Hill coefficient: 1.444 ± 0.104
  Max Current (pA): -5007 ± 470.7 pA
[2]
  Hill coefficient: 1.230 ± 0.049
  Max Current (pA): -2449 ± 376.1 pA
[3]
  Hill coefficient: 1.443 ± 0.092
  Max Current (pA): -3186 ± 390.8 pA
α2β2γ2 GABAA receptor
  Hill coefficient: 1.581 ± 0.074
  Max Current (pA): -3326 ± 356.7 pA
[4]
  Hill coefficient: 1.519 ± 0.88
  Max Current (pA): -3597 ± 343.6 pA
[5]
  Hill coefficient: 1.796
  Max Current (pA): -1724 ± 286.1 pA
[6]
  Max Current (pA): -1993 ± 189.7 pA
[7]
  Max Current (pA): -4487 ± 397.2 pA
[8]
  Hill coefficient: 1.215 ± 0.079
  Max Current (pA): -3049 ± 378.6 pA
α6β2γ2 GABAA receptor
  Hill coefficient: 1.405 ± 0.074
  Max Current (pA): -3276 ± 578.1 pA
[9]
  Max Current (pA): -3540 ± 290.2 pA
[10]
  Max Current (pA): -2902 ± 349.5 pA
